Patent US12435059B2, “AMP-activated protein kinase inhibitors and methods of making and using the same” (The Regents of the University of Colorado, priority 2019, dated 2025)
Where two headings read alike, the source gives them in different places.

How the values were obtained:
Assay in all cases: biochemical
Format in all cases: binding
[1] = biological target: 468 kinases (Homo sapiens, UniProt P45983); conditions: JNK1; read-out: % Inhibition @ 100 nM
[2] = biological target: 468 kinases (Homo sapiens, UniProt Q8IYT8); conditions: ULK2; read-out: % Inhibition @ 100 nM
[3] = biological target: 468 kinases (Homo sapiens, UniProt Q14164); conditions: IKK-epsilon; read-out: % Inhibition @ 100 nM
[4] = biological target: 468 kinases (Homo sapiens, UniProt P10721, L576P); conditions: KIT(L576P); read-out: % Inhibition @ 100 nM
[5] = biological target: 468 kinases (Homo sapiens, UniProt Q5VT25); conditions: MRCKA; read-out: % Inhibition @ 100 nM
[6] = biological target: 468 kinases (Homo sapiens, UniProt O15111); conditions: IKK-alpha; read-out: % Inhibition @ 100 nM
[7] = biological target: 468 kinases (Homo sapiens, UniProt Q9UM73, C1156Y); conditions: ALK(C1156Y); read-out: % Inhibition @ 100 nM
[8] = biological target: 468 kinases (Homo sapiens, UniProt P16591); conditions: FER; read-out: % Inhibition @ 100 nM
[9] = biological target: 468 kinases (Homo sapiens, UniProt P48730); conditions: CSNK1D; read-out: % Inhibition @ 100 nM
[10] = biological target: 468 kinases (Homo sapiens, UniProt P30291); conditions: WEE1; read-out: % Inhibition @ 100 nM
[11] = biological target: 468 kinases (Homo sapiens, UniProt P04626); conditions: ERBB2; read-out: % Inhibition @ 100 nM
[12] = biological target: 468 kinases (Homo sapiens, UniProt Q02156); conditions: PRKCE; read-out: % Inhibition @ 100 nM
[13] = biological target: 468 kinases (Homo sapiens, UniProt P28482); conditions: ERK2; read-out: % Inhibition @ 100 nM
[14] = biological target: 468 kinases (Homo sapiens, UniProt P31751); conditions: AKT2; read-out: % Inhibition @ 100 nM
[15] = biological target: 468 kinases (Homo sapiens, UniProt Q00526); conditions: CDK3; read-out: % Inhibition @ 100 nM
[16] = biological target: 468 kinases (Homo sapiens, UniProt P25098); conditions: GRK2; read-out: % Inhibition @ 100 nM
[17] = biological target: 468 kinases (Homo sapiens, UniProt O94804); conditions: LOK; read-out: % Inhibition @ 100 nM
[18] = biological target: 468 kinases (Homo sapiens, UniProt P51955); conditions: NEK2; read-out: % Inhibition @ 100 nM
[19] = biological target: 468 kinases (Homo sapiens, UniProt P22607); conditions: FGFR3; read-out: % Inhibition @ 100 nM
[20] = biological target: 468 kinases (Homo sapiens, UniProt Q56UN5); conditions: YSK4; read-out: % Inhibition @ 100 nM
[21] = biological target: 468 kinases (Homo sapiens, UniProt P80192); conditions: MLK1; read-out: % Inhibition @ 100 nM
[22] = biological target: 468 kinases (Homo sapiens, UniProt Q13705); conditions: ACVR2B; read-out: % Inhibition @ 100 nM
[23] = biological target: 468 kinases (Homo sapiens, UniProt Q9NQU5); conditions: PAK6; read-out: % Inhibition @ 100 nM
[24] = biological target: 468 kinases (Homo sapiens, UniProt P23443); conditions: S6K1; read-out: % Inhibition @ 100 nM
[25] = biological target: 468 kinases (Homo sapiens, UniProt Q9P0L2); conditions: MARK1; read-out: % Inhibition @ 100 nM
[26] = biological target: 468 kinases (Homo sapiens, UniProt Q9BWU1); conditions: CDK11; read-out: % Inhibition @ 100 nM
[27] = biological target: 468 kinases (Homo sapiens, UniProt Q96GD4); conditions: AURKB; read-out: % Inhibition @ 100 nM
[28] = biological target: 468 kinases (Homo sapiens, UniProt P00519, F317I); conditions: read-out: % Inhibition @ 100 nM
[29] = biological target: 468 kinases (Homo sapiens, UniProt P10721, V559D/V654A); conditions: KIT(V559D,V654A); read-out: % Inhibition @ 100 nM
[30] = biological target: 468 kinases (Homo sapiens, UniProt Q13546); conditions: RIPK1; read-out: % Inhibition @ 100 nM
[31] = biological target: 468 kinases (Homo sapiens, UniProt P17612); conditions: PKAC-alpha; read-out: % Inhibition @ 100 nM
[32] = biological target: 468 kinases (Homo sapiens, UniProt P07949, M918T); conditions: RET(M918T); read-out: % Inhibition @ 100 nM

Compound	inhibition at 0.1 µM [1]	inhibition at 0.1 µM [2]	inhibition at 0.1 µM [3]	inhibition at 0.1 µM [4]	inhibition at 0.1 µM [5]	inhibition at 0.1 µM [6]	inhibition at 0.1 µM [7]	inhibition at 0.1 µM [8]	inhibition at 0.1 µM [9]	inhibition at 0.1 µM [10]	inhibition at 0.1 µM [11]	inhibition at 0.1 µM [12]	inhibition at 0.1 µM [13]	inhibition at 0.1 µM [14]	inhibition at 0.1 µM [15]	inhibition at 0.1 µM [16]	inhibition at 0.1 µM [17]	inhibition at 0.1 µM [18]	inhibition at 0.1 µM [19]	inhibition at 0.1 µM [20]	further results
CCN(CC)CCNC(=O)c1c(C)[nH]c(/C=C2\C(=O)Nc3ccc(CCO)cc32)c1C [Compound No. 10, (Z)—N-(2-(Diethylamino)ethyl)-5-((5-(2-hydroxyethyl)-2-oxoindolin-3-ylidene)methyl)-2,4-dimethyl-1H-pyrrole-3-carboxamide]	9%	71%	68%	88%	3%	0%	90%	12%	29%	15%	0%	0%	8%	4%	0%	0%	3%	0%	52%	90.4%	inhibition at 0.1 µM [21]: 1%; inhibition at 0.1 µM [22]: 1%; inhibition at 0.1 µM [23]: 0%; inhibition at 0.1 µM [24]: 37%; inhibition at 0.1 µM [25]: 39%; inhibition at 0.1 µM [26]: 12%; inhibition at 0.1 µM [27]: 20%; inhibition at 0.1 µM ([28]; ABL1 (F317I)-nonphosphorylated): 8%; inhibition at 0.1 µM ([28]; ABL1 (F317I)-phosphorylated): 0%; inhibition at 0.1 µM [29]: 79%; inhibition at 0.1 µM [30]: 1%; inhibition at 0.1 µM [31]: 0%; inhibition at 0.1 µM [32]: 65%
CCN(CC)CCNC(=O)c1c(C)[nH]c(/C=C2\C(=O)Nc3ccc(CCC(N)=O)cc32)c1C [Compound No. 16, (Z)-5-((5-(3-Amino-3-oxopropyl)-2-oxoindolin-3-ylidene)methyl)-N-(2-(diethylamino)ethyl)-2,4-dimethyl-1H-pyrrole-3-carboxamide]	7%	82%	44%	12%	9%	20%	86%	0%	9%	24%	0%	5%	6%	0%	19%	48%	0%	5%	11%	98.2%	inhibition at 0.1 µM [21]: 5%; inhibition at 0.1 µM [22]: 12%; inhibition at 0.1 µM [23]: 0%; inhibition at 0.1 µM [24]: 33%; inhibition at 0.1 µM [25]: 13%; inhibition at 0.1 µM [26]: 3%; inhibition at 0.1 µM [27]: 34%; inhibition at 0.1 µM ([28]; ABL1 (F317I)-phosphorylated): 31%; inhibition at 0.1 µM [29]: 0%; inhibition at 0.1 µM [30]: 19%; inhibition at 0.1 µM [31]: 0%; inhibition at 0.1 µM [32]: 68%
